Entries after “also recorded” stand apart in the source; their conditions may differ.
Legend:
[1] = test system: Tumor Necrosis Factor-alpha (TNF-α); test: ELISA for TNF-α in culture media of EpiDermFT tissue inoculated with C. acnes; assay type: cell-based, human; conditions: C. acnes ATCC 11827 48 hours, 24-hour treatment
Procedure: (§1) EpiDermFT (EFT-400, MatTek Europe, Bratislava Slovak Republic) is a multilayered reconstituted model of the human dermis and epidermis, formed by culturing normal, human epidermal keratinocytes (NHEK) and normal, human dermal fibroblasts (NHFB). […] The dermal compartment is composed of a collagen matrix containing viable normal human dermal fibroblasts (NHDF). […] Testing was conducted on EpiDermFT in 12-well plates filled with culture medium without antibiotics at 37° C., 5% CO2, saturated humidity (90% RH). Inoculum-6 μL of lipid mix (olive oil and neutral triacylglycerol mixed 1:1) and 60 μL of C. acnes ATCC 11827, 10^7-10^8 CFU/mL-was applied to EpiDerm tissue for 48 hours. […] At the end of the treatment period, culture media was collected and stored at -20° C. for subsequent analysis by ELISA immunoassay for two inflammatory markers TNF-α and C[…] using commercially-available test kits-QuantikineTM ELISA Human Caspase-1/ICE Immunoassay and Human TNF-α Immunoassay both from R&D Systems, Inc. (Minneapolis, MN), Catalog Number DCA100 and DTAOOD, respectively.

Caspase-1 (CASP-1) = test: ELISA for Caspase-1 in culture media of EpiDermFT tissue inoculated with C. acnes; assay type: cell-based, human; conditions: C. acnes ATCC 11827 48 hours, 24-hour treatment
Procedure: as §1

[2] = cited from earlier work
[3] = ethanol / ethyl alcohol, normal temperatures; cited from earlier work

O=C(O)c1ccccc1O [Group 1, salicylic acid]
TNF-α inflammatory response versus the C. acnes treated control [1]: increased inflammatory response
CASP-1 inflammatory response versus the C. acnes treated control (Caspase-1 (CASP-1)): increased inflammatory response

O=C(O)CCCCCCCC(=O)O [azelaic acid, Azelaic acid]
solvent quality for azelaic acid ([2]; isopropanol): good
maximum azelaic acid dissolved in water ([2]; water): ≤ 0.24 % by weight (w/w)
stability of azelaic acid in ethanol [3]: unstable; also recorded: instability

— patent US20260232808A1, “Dicarboxylic Acid Concentrates” (Vantage Specialty Ingredients, Inc., priority 2023, published 2026)
